Like-named read-outs stand apart in the source and are kept apart here.
Assays:
human IRAK4 = target: T1, human IRAK4 (Homo sapiens, UniProt Q9NWZ3); test: Human IRAK4 kinase activity inhibition assay (IRAK4 TR-FRET assay); type: biochemical; settings: 1 mM ATP, GST-human IRAK4, average or median values
T1 construct: GST (N); made in house; host or cells: baculovirus-infected Hi5 (BTI-TN-5B1-4) insect cells
T1 sequence (Q9NWZ3 1-460): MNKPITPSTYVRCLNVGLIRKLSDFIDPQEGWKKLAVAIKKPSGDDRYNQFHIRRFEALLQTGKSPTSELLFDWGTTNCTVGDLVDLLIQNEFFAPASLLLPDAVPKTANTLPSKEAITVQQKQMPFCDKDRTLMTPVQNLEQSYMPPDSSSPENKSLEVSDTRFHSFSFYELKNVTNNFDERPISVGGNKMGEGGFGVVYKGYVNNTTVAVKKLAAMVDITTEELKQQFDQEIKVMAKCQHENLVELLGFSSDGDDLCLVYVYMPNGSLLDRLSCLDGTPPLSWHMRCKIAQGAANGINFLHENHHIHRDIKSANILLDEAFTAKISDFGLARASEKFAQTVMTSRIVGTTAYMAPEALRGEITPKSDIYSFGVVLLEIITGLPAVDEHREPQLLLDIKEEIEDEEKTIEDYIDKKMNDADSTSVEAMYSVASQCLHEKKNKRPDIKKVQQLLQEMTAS
Procedure, shortened: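 GST-IRAK4 from insect cells (about 0.2 nM, linear range) was preincubated 15 min with compound (11 concentrations, 20 µM–0.073 nM) in HEPES pH 7.5 with MgCl2 and DTT before kinase reaction on a biotinylated peptide. Phosphopeptide was detected by TR-FRET (Eu anti-mouse-IgG/anti-phosphoserine/streptavidin-XL665, 1 h at 22°C) as the 665/620 nm ratio, normalized to no-compound and no-enzyme controls.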

canine Irak4 = target: T2, canine Irak4 (Canis lupus familiaris, UniProt A0A8I3S726); test: Canine Irak4 kinase assay (TR-FRET); type: biochemical; settings: 1 mM ATP, His6-tagged canine Irak4, average or median values
T2 sequence (A0A8I3S726 2-459): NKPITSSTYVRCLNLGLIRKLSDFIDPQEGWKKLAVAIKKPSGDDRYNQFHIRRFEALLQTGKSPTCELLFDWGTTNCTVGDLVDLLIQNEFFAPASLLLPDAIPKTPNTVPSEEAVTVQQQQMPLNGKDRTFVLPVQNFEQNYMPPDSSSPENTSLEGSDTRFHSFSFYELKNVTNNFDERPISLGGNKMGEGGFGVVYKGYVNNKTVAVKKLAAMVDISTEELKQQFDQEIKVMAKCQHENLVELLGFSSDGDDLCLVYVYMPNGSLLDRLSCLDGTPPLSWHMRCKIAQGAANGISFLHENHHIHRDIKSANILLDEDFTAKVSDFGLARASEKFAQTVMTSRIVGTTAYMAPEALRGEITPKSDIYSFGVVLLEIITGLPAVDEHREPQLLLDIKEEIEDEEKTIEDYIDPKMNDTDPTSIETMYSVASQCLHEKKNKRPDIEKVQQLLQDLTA

[1] = Metabolic stability in human liver microsomes; settings: 1 µM compound; for CLblood, human microsomes: hepatic in vivo blood clearance calculated with well stirred liver model, '(stable)' given beside < 0.01; for Fmax, human microsomes: maximal oral bioavailability calculated with well stirred liver model, 0.5 mg/mL protein, '(stable)' given beside 100
Procedure: (§1) The in vitro metabolic stability of test compounds was determined by incubating them at 1 µM in a suspension liver microsomes in 100 mM phosphate buffer, pH7.4 (NaH2PO4 x H2O + Na2HPO4 x 2H2O) and at a protein concentration of 0.5 mg/mL at 37° C. The microsomes were activated by adding a co-factor mix containing 8 mM Glukose-6-Phosphat, 4 mM MgCl2, 0.5 mM NADP and 1 IU/mL G-6-P-Dehydrogenase in phosphate buffer, pH 7.4. The metabolic assay was started shortly afterwards by adding the test compound to the incubation at a final volume of 1 mL. Organic solvent in the incubations was limited to ≤0.01 % dimethylsulfoxide (DMSO) and ≤1% acetonitril. During incubation, the microsomal suspensions were continuously shaken at 580 rpm, and aliquots were taken at 2, 8, 16, 30, 45 and 60 min, to which equal volumes of cold methanol were immediately added. Samples were frozen at -20° C over night, subsequently centrifuged for 15 min at 3000 rpm and the supernatant was analyzed with an Agilent 1200 HPLC-system with LCMS/MS detection.
(§2) The half-life of a test compound was determined from the concentration-time plot. From the half-life the intrinsic clearances were calculated. Together with the additional parameters liver blood flow, specific liver weight and microsomal protein content the hepatic in vivo blood clearance (CL) and the maximal oral bioavailability (Fmax) were calculated using the "well stirred" liver model. The following parameter values were used: Liver blood flow - 1.32 L/h/kg (human), 2.1 L/h/kg (dog); specific liver weight - 21 g/kg (human), 39 g/kg (dog); microsomal protein content - 40 mg/g.

human PBMCs = test: In vitro LPS-induced cytokine (TNF-α) production in human PBMCs; type: cell-based; settings: PBMC, 0.1 µg/mL LPS, 24 hours, 30 min preincubation, read-out: activity (LPS-induced TNF-α secretion in human PBMCs)
Procedure: The effect of the compounds of the general formula (I) on induced cytokine production in human PBMCs was examined.
Cytokine production was induced here by LPS, a TLR4 ligand, which leads to activation of the IRAK4-mediated signal path.
The human PBMCs were obtained from anti-coagulated human whole blood. To this end, 15 mL of Ficoll-Paque (Biochrom, Cat. No. L6115) were initially charged in Leucosep tubes and 20 mL of human blood were added. After centrifugation of the blood at 800 g for 15 min at room temperature, the plasma including the platelets was removed and discarded. The PBMCs were transferred into centrifugation tubes and made up with PBS (phosphate-buffered saline) (Gibco, Cat. No. 14190). The cell suspension was centrifuged at room temperature at 250 g for 10 min and the supernatant was discarded. The PBMCs were resuspended in complete medium (RPMI 1640, without L-glutamine (PAA, Cat. No. E15-039), 10% FCS; 50 U/mL penicillin, 50 µg/mL streptomycin (PAA, Cat. No. P11-010) and 1% L-glutamine (Sigma, Cat. No. G7513)). The assay was also carried out in complete medium. The PBMCs were sown in 96-well plates at a cell density of 2.5x10^5 cells/well. The compounds according to the invention were subjected to serial dilution in a constant volume of 100% DMSO and used in the assay at 8 different concentrations in the range from 10 µM to 3 nM such that the final DMSO concentration was 0.4% DMSO. Prior to the actual stimulation, the cells were then preincubated therewith for 30 min. To induce cytokine secretion, the cells were stimulated with 0.1 µg/mL LPS (Sigma, Escherichia coli 0128:B12, Cat. No. L2887) for 24 hours. Cell viability was determined using the CellTiter-Glo luminescent assay (Promega, Cat. No. G7571 (G755/G756A)) in accordance with the manufacturer's instructions. The amount of secreted TNF-α in the cell culture supernatant was determined using the Human ProInflammatory 9-Plex Tissue Culture Kit (MSD, Cat. No. K15007B) in accordance with the instructions of the manufacturer. By way of example, Example Compounds II-2, I-40, I-56, I-61 have activity ≤ 500 nM.

[2] = 1 µM, pH 7.4
Procedure: as §1, §2

[3] = Metabolic stability in dog liver microsomes; type: in vitro ADME; settings: 1 µM compound; for CLblood, dog microsomes: hepatic in vivo blood clearance calculated with well stirred liver model, '(stable)' given beside < 0.01; for Fmax, dog microsomes: maximal oral bioavailability calculated with well stirred liver model, 0.5 mg/mL protein, '(stable)' given beside 100
Procedure: From the half-life the intrinsic clearances were calculated.

Row | SMILES | IC50 (human IRAK4) [nM] | IC50 (canine Irak4) [nM] | CLblood, human microsomes [1] [mL/min/kg] | Fmax, human microsomes [1] [%] | IC50 (human PBMCs) [nM] | CLblood, human microsomes [2] | Fmax, human microsomes [2] | CLblood, dog microsomes [3] [mL/min/kg] | Fmax, dog microsomes [3] [%]
1 | CN1CC[C@H](Nc2nc(N3CCC(C(C)(C)O)CC3)c3cnn(-c4cccc(C(F)(F)F)c4)c3n2)C1 [Example I-13-1, 2-[1-(6-{[(3S)-1-methylpyrrolidin-3-yl]amino}-1-[3-(trifluoromethyl)phenyl]-1H-pyrazolo[3,4-d]pyrimidin-4-yl)piperidin-4-yl]propan-2-ol] | 13.1 | 26.4 | 8.33 | 62 |  |  |  |  | 
2 | CC(C)(O)C1CCN(c2nc(NC3CN(S(C)(=O)=O)C3)nc3c2cnn3-c2cccc(C(F)(F)F)c2)CC1 [Example I-14, 2-[1-(6-{[1-(methylsulfonyl)azetidin-3-yl]amino}-1-[3-(trifluoromethyl)phenyl]-1H-pyrazolo[3,4-d]pyrimidin-4-yl)piperidin-4-yl]propan-2-ol] | 12 | 12.7 | 1.2 | 95 |  |  |  |  | 
3 | O=S1(=O)CCC(Nc2nc(N3CC(N4CCOCC4)C3)c3cnn(-c4cccc(C(F)(F)F)c4)c3n2)CC1 [Example I-23, N-(1,1-dioxidotetrahydro-2H-thiopyran-4-yl)-4-[3-(morpholin-4-yl)azetidin-1-yl]-1-[3-(trifluoromethyl)phenyl]-1H-pyrazolo[3,4-d]pyrimidin-6-amine] | 8.82 | 5.41 | 2.83 | 87 |  |  |  |  | 
4 | C[C@H]1C[C@H](Nc2nc(N3CCC(C(C)(C)O)CC3)c3cnn(-c4cccc(C(F)(F)F)c4)c3n2)CN1 [Example I-40, 2-[1-(6-{[(3S,5S)-5-methylpyrrolidin-3-yl]amino}-1-[3-(trifluoromethyl)phenyl]-1H-pyrazolo[3,4-d]pyrimidin-4-yl)piperidin-4-yl]propan-2-ol] | 3.68 |  | 1.2 | 95 | ≤ 500 |  |  |  | 
5 | O=C1C[C@H](Nc2nc(N3CC(CC(=O)N4CC5CC(C4)O5)C3)c3cnn(-c4cccc(C(F)(F)F)c4)c3n2)CN1 [Example I-52, (4S)-4-[(4-{3-[2-(6-oxa-3-azabicyclo[3.1.1]heptan-3-yl)-2-oxoethyl]azetidin-1-yl}-1-[3-(trifluoromethyl)phenyl]-1H-pyrazolo[3,4-d]pyrimidin-6-yl)amino]pyrrolidin-2-one] | 7.99 |  |  |  |  | < 0.01 (stable) L/h/kg | 100 (stable) % |  | 
6 | CS(=O)(=O)[C@H]1C[C@H](Nc2nc(N3CC(N4CCOCC4)C3)c3cnn(-c4cccc(C(F)(F)F)c4)c3n2)C1 [Example I-56, N-[trans-3-(methylsulfonyl)cyclobutyl]-4-[3-(morpholin-4-yl)azetidin-1-yl]-1-[3-(trifluoromethyl)phenyl]-1H-pyrazolo[3,4-d]pyrimidin-6-amine] | 3.46 |  | 1 | 95 | ≤ 500 |  |  | 1 | 97
7 | CC(C)(O)C1CCN(c2nc(N[C@H]3C[C@](C)(N)C3)nc3c2cnn3-c2cccc(C(F)(F)F)c2)CC1 [Example I-57, 2-(1-{6-[(trans-3-amino-3-methylcyclobutyl)amino]-1-[3-(trifluoromethyl)phenyl]-1H-pyrazolo[3,4-d]pyrimidin-4-yl}piperidin-4-yl)propan-2-ol] | 1.82 | 1.98 | 0.67 | 97 |  |  |  |  | 
8 | CC1(O)CCN(C2CN(c3nc(N[C@H]4C[C@H](S(C)(=O)=O)C4)nc4c3cnn4-c3cccc(C(F)(F)F)c3)C2)CC1 [Example I-61, 4-methyl-1-[1-(6-{[trans-3-(methylsulfonyl)cyclobutyl]amino}-1-[3-(trifluoromethyl)-phenyl]-1H-pyrazolo[3,4-d]pyrimidin-4-yl)azetidin-3-yl]piperidin-4-ol] | 3.28 |  | 5.17 | 77 | ≤ 500 |  |  |  | 
9 | O=S1(=O)CCC(Nc2nc(N3CC(N4CCOCC4)C3)c3cnn(-c4cccc(C(F)F)c4)c3n2)CC1 [II-2, 1-[3-(difluoromethyl)phenyl]-N-(1,1-dioxidotetrahydro-2H-thiopyran-4-yl)-4-[3-(morpholin-4-yl)azetidin-1-yl]-1H-pyrazolo[3,4-d]pyrimidin-6-amine] | 6.68 |  | 2.5 | 88 | ≤ 500 |  |  | 1.2 | 97
10 | CC(C)(O)C1CCN(c2nc(N[C@@H]3CNC(=O)C3)nc3c2cnn3-c2cccc(OC(F)F)c2)CC1 [IV-1, (4S)-4-({1-[3-(difluoromethoxy)phenyl]-4-[4-(2-hydroxypropan-2-yl)piperidin-1-yl]-1H-pyrazolo[3,4-d]pyrimidin-6-yl}amino)pyrrolidin-2-one] | 8.06 | 6.52 | 3 | 86 |  |  |  |  | 
